Series [1] deals with human pulmonary carcinoma strain PC-12. Put plainly: Growth inhibition of PC-12 cells, MTT assay (Test Example 1). Type of series: cell-based. The conditions noted are these: cultured 3 days with sample, absorbance 540 nm; for GI50: Homo sapiens, PC-12, 72 h. Here is the method:
A human pulmonary carcinoma strain PC-12 which had been subcultured using RPMI 1640 containing 10% fetal calf serum, 2 mM of L-glutamine and 100 μg/ml of kanamycin sulfate was inoculated into a 96 well microplate at an inoculum size of 1.0×1.0^3 cells/150 μl/well, and 50 μl/well of a sample was added 24 hours thereafter. The cells were then cultured for 3 days, and a 5 mg/ml solution of MTT (3-(4,5-dimethylthiazol-2-yl)-2,5-diphenyl-2H-tetrazolium bromide) was dispensed in 20 μl/well portions. Four hours thereafter, the culture medium was discarded, dimethyl sulfoxide was dispensed in 150 μl/well portions and the absorbance was measured at 540 nm. The antitumor effect was shown by GI50 value (ng/ml) as a drug concentration which reduced cell growth of the drug-added group to 50% of the control group.
A general note: Tetrazolium assays rely on reduction of a dye to a coloured formazan, in cell work by metabolically active cells.

Series [2] concerns mice (Balb/c). Put plainly: Coordination inhibition test, RotaRod (Test Example 2). It is filed as in vivo. The conditions noted are these: oral; for T/C (coordination inhibition positive mice/tested mice) After 1 hour: 1 hour after administration; for T/C (coordination inhibition positive mice/tested mice) After 4 hours: 4 hours after administration. Here is the method:
Rotation speed of the rotary rod (3 cm in diameter) of RotaRod apparatus (mfd. by Natsume Seisaku-sho) was set to 10 rpm, and mice (Balb/c) which stood on the rod for 60 seconds or more were selected. After 1, 4 or 24 hours of the oral administration of each test sample, these mice were put on the rod, and the mice which dropped within 60 seconds were regarded as coordination inhibition action positive.
(In general: The rotarod test checks motor coordination on a turning rod.)

The subject of series [3] is Mouse fibrosarcoma Meth A. Put plainly: Antitumor effect (IR) against subcutaneously transplanted Meth A. It is filed as in vivo, mice. The conditions noted are these: judged on the 17th day.

≈ marks a conversion by molar mass, not a printed value. Where a name gives a salt, the structure may show the parent alone. Marks after values point to notes of the source that are not given here.

One may read the GI50 as the concentration giving 50% growth inhibition.

Regarding `Cc1c(/C=C/CN2CCN3c4cc(F)ccc4OCC3C2)cnn1-c1nccc(N)n1` (racemic) [Example 3, (+/−)-3-[3-[1-(4-Amino-2-pyrimidinyl)-5-methyl-4-pyrazolyl]-2-trans-propen-1-yl]-9-fluoro-2,3,4,4a,5,6-hexahydro-1H-pyrazino[2,1-c]-1,4-benzoxazine hydrochloride], it took 20.9 ng/mL to inhibit growth in series [1] by half (GI50). Consider `Cc1c(/C=C/CN2CCN3c4ccccc4CC3C2)cnn1-c1nccc(N)n1` (racemic) [Example 4, (+/−)-2-[3-[1-(4-Amino-2-pyrimidinyl)-5-methyl-4-pyrazolyl]-2-trans-propen-1-yl]-1,2,3,4,10,10a-hexahydropyrazino[1,2-a]indole hydrochloride], for which halving of growth in series [1] (GI50) required 12.1 ng/mL. For the compound `Cc1c(/C=C/CN2CCN3c4cc(F)ccc4CCC3C2)cnn1-c1nccc(N)n1` (single isomer, unassigned; isomer a) [Example 1, 3-[3-[1-(4-Amino-2-pyrimidinyl)-5-methyl-4-pyrazolyl]-2-trans-propen-1-yl]-9-fluoro-2,3,4,4a,5,6-hexahydro-1H-pyrazino[1,2-a]quinoline hydrochloride (isomer A)], the “GI50 Value” in series [1] (listed as Compound of Example 1) was 36.5 ng/mL.

For the compound `Cc1c(/C=C/CN2CCN3c4cc(F)ccc4CCC3C2)cnn1-c1nccc(N)n1` (single isomer, unassigned; isomer b) [Example 2, 3-[3-[1-(4-amino-2-pyrimidinyl)-5-methyl-4-pyrazolyl]-2-trans-propen-1-yl]-9-fluoro-2,3,4,4a,5,6-hexahydro-1H-pyrazino[1,2-a]quinoline hydrochloride (isomer B)], in series [1] (listed as Compound of Example 2), the “GI50 Value” is 12.1 ng/mL.

In turn, `Cc1c(/C=C/CN2CCN3c4cc(F)cc(F)c4CCC3C2)cnn1-c1cc(N(C)CCO)nc(N)n1.Cl` (single isomer, unassigned; isomer b) [Example 28, 3-[3-[1-[2-Amino-6-[N-methyl-N-(2-hydroxyethyl)amino-4-pyrimidinyl]-5-methyl-4-pyrazolyl]-2-trans-propen-1-yl]-7,9-difluoro-2,3,4,4a,5,6-hexahydro-1H-pyrazino[1,2-a]quinoline hydrochloride (isomer B)] came in with a GI50 in series [1] of 0.725 ng/mL. Still for that read-out and setting: under `Cc1c(/C=C/CN2CCN3c4cc(F)cc(F)c4CCC3C2)cnn1-c1cc(N(CCO)CCO)nc(N)n1` (single isomer, unassigned; isomer b) [Example 29, 3-[3-[1-[2-Amino-6-di(2-hydroxyethyl)amino-4-pyrimidinyl]-5-methyl-4-pyrazolyl]-2-trans-propen-1-yl]-7,9-difluoro-2,3,4,4a,5,6-hexahydro-1H-pyrazino[1,2-a]quinoline hydrochloride (isomer B)] stands 1.54 ng/mL. For `O=c1[nH]cc(F)c(=O)[nH]1` [Example 5-FU, 5-FU, reference compound], the “GI50 Value” in series [1] was 35.5 ng/mL (≈ 0.273 µM). With `Cc1c(/C=C/CN2CCN(c3cc(F)cc(F)c3)CC2)cnn1-c1cc(NCCO)nc(N)n1.Cl` [Example 11, 1-[1-[2-Amino-6-(2-hydroxyethyl)amino-4-pyrimidinyl]-5-methyl-4-pyrazolyl]-3-[4-(3,5-difluorophenyl)-1-piperazinyl]-1-trans-propene], the GI50 in series [1] was found to be 2.49 ng/mL.

`Cc1c(/C=C/CN2CCN(c3cc(F)cc(F)c3)CC2)cnn1-c1cc(N(CCO)CCO)nc(N)n1.Cl` [Example 12, 1-[1-[2-Amino-6-di(2-hydroxyethyl)amino-4-pyrimidinyl]-5-methyl-4-pyrazolyl]-3-(4-(3,5-difluorophenyl)-1-piperazinyl]-1-trans-propene hydrochloride] showed a concentration for 50% growth inhibition (GI50) in series [1] of 1.6 ng/mL.

For the compound `Cc1c(/C=C/CN2CCN(c3cc(F)cc(F)c3)CC2)cnn1-c1cc(N2CC(O)C2)nc(N)n1.Cl` [Example 13, 1-[1-[2-Amino-6-(3-hydroxy-1-azetidinyl)-4-pyrimidinyl]-5-methyl-4-pyrazolyl]-3-[4-(3,5-difluorophenyl)-1-piperazinyl]-1-trans-propene hydrochloride], the “T/C (coordination inhibition positive mice/tested mice) After 1 hour” value is given as 0/6 in series [2] (dose 5 mg), 0/6 in series [2] (dose 10 mg) and 1/6 in series [2] (dose 12 mg). Also, the “T/C (coordination inhibition positive mice/tested mice) After 4 hours” value in series [2] (dose 5 mg) was 0/6; in series [2] (dose 10 mg), 0/6; in series [2] (dose 12 mg), 2/6. Moreover, the GI50 in series [1] is 0.601 ng/mL. Further, in series [3] (oral 5 mg × 4 times (d7-10)), the “antitumor effect (IR)” value is reported as 5 mg × 4 times (IR 92%)*. The compound `Cc1c(/C=C/CN2CCN(c3cc(F)cc(F)c3)CC2)cnn1-c1cc(NCCN)nc(N)n1.Cl` [Example 15, 1-[1-[2-Amino-6-(2-aminoethyl)amino-4-pyrimidinyl]-5-methyl-4-pyrazolyl]-3-[4-(3,5-difluorophenyl)-1-piperazinyl]-1-trans-propene hydrochloride] returned a GI50 in series [1] of 26.6 ng/mL. Still for that read-out and setting: in the case of `Cc1c(/C=C/CN2CCN(c3cc(F)cc(F)c3)CC2)cnn1-c1cc(N2CC(N)C2)nc(N)n1.Cl` [Example 19, 1-[1-[2-Amino-6-(3-amino-1-azetidinyl)-4-pyrimidinyl]-5-methyl-4-pyrazolyl]-3-[4-(3,5-difluorophenyl)-1-piperazinyl]-1-trans-propene hydrochloride] it was 2.35 ng/mL; in that of `Cc1c(/C=C/CN2CCN(c3cc(F)cc(F)c3)CC2)cnn1-c1nc(N)cc(N2CC(O)C2)n1.Cl` [Example 21, 1-[1-[4-Amino-6-(3-hydroxy-1-azetidinyl)-2-pyrimidinyl]-5-methyl-4-pyrazolyl]-3-[4-(3,5-difluorophenyl)-1-piperazinyl]-1-trans-propene hydrochloride], 3.39 ng/mL. Compound `Cc1c(/C=C/CN2CCN(c3cc(F)cc(F)c3)CC2)cnn1-c1nc(N)cc(N2CCC2)n1` [Example 26, 1-[[4-Amino-6-(1-azetidinyl)-2-pyrimidinyl]-5-methyl-4-pyrazolyl]-3-[4-(3,5-difluorophenyl)-1-piperazinyl]-1-trans-propene hydrochloride] showed a GI50 in series [1] of 6.29 ng/mL. On the same count and under the same terms, under `Cc1c(/C=C/CN2CCN3c4cc(F)cc(F)c4CCC3C2)cnn1-c1cc(NCCO)nc(N)n1` (stereo not drawn) [Example 27, 3-[3-[1-[2-Amino-6-(2-hydroxyethyl)amino-4-pyrimidinyl]-5-methyl-4-pyrazolyl]-2-trans-propen-1-yl]-7,9-difluoro-2,3,4,4a,5,6-hexahydro-1H-pyrazino[1,2-a]quinoline hydrochloride] stands 9.3 ng/mL. Turning to `Cc1c(/C=C/CN2CCN(c3cc(F)cc(F)c3)CC2)cnn1-c1cc(N2CC(C)(O)C2)nc(N)n1.Cl` [Example 54, 1-[1-[2-Amino-6-(3-hydroxy-3-methyl-1-azetidinyl)-4-pyrimidinyl]-5-methyl-4-pyrazolyl]-3-[4-(3,5-difluorophenyl)-1-piperazinyl]-1-trans-propene hydrochloride], the “T/C (coordination inhibition positive mice/tested mice) After 1 hour” value in series [2] (dose 10 mg) and in series [2] (dose 30 mg) was 0/6 in each case. Besides, the “T/C (coordination inhibition positive mice/tested mice) After 4 hours” value in series [2] (dose 10 mg) and in series [2] (dose 30 mg) was 0/6 throughout. Besides, growth in series [1] was halved (GI50) at 11.3 ng/mL. Further, in series [3] (oral 10 mg × 4 times (d7-10)), the “antitumor effect (IR)” value is recorded as 10 mg × 4 times (IR 89%)*.

The record behind these values is patent US6573377B1, “Pyrazole derivatives and salts thereof” (Daiichi Pharmaceuticals Co., Ltd., priority 1998, dated 2003).
